Laboratory results from patent US20260151406A1, “COMPOSITION FOR PREVENTING OR TREATING PERIODONTITIS COMPRISING CANNABIDIOL AND TAURINE” (MBP CO., LTD., priority 2022, published 2026).

Tests used:
Assay type in all cases: cell-based
[1] = tested on: TRAP-positive cell formation in macrophages; assay: Inhibition of TRAP-positive cell formation by RANKL during osteoclast differentiation; conditions: osteoclast differentiation (FIG. 3)
Procedure: (§1) To confirm the inhibitory effect of CBD and taurine on bone loss caused by periodontitis, the degree of TRAP formation and bone loss by RANKL (receptor activator of nuclear factor-KB ligand) was analyzed through pit formation area analysis.
As a result of analyzing the degree of inhibition of TRAP-positive cell formation by RANKL during osteoclast differentiation, it was confirmed that the inhibition efficacy of TRAP-positive cell formation was very low when CBD or taurine was used alone, but the inhibition efficacy of TRAP-positive cell formation was very high when CBD and taurine were used in combination (FIG. 3).

[2] = tested on: bone loss by RANKL in macrophages; assay: Inhibition of bone loss by RANKL in macrophages (pit formation area analysis); conditions: pit formation area (FIG. 4)
Procedure: as §1
To further confirm the bone loss inhibition efficacy of CBD and taurine, the degree of inhibition of bone loss by RANKL in macrophages was analyzed.

[3] = tested on: Raw264.7 cells; assay: Evaluation of cytotoxicity (intracellular toxicity); conditions: CBD alone (FIG. 1)
Procedure: For CBD and taurine, intracellular toxicity evaluation was performed on osteoclasts (Raw264.7 cells), which are inflammatory cells, and the results are shown in FIG. 1. […] The appropriate concentrations of CBD (10 uM) and Taurine (0.5 mM) were determined, and intracellular toxicity evaluation according to subsequent combined treatment was performed.

Compound	inhibition efficacy of TRAP-positive cell formation [1]	bone loss inhibition efficacy [2]	concentration up to which there was no intracellular toxicity [3]
C=C(C)[C@@H]1CCC(C)=C[C@H]1c1c(O)cc(CCCCC)cc1O [CBD, Cannabidiol]	very low	almost none or very low	≤ 12 µM
NCCS(=O)(=O)O [taurine]	very low	almost none or very low	–
